From patent US9409914B2, “Triazolo[4,5-d]pyrimidine derivatives” (Merck Patent GmbH, priority 2012, dated 2016)

Key:
GCN2 [1] = target: T1, GCN2 (Homo sapiens, UniProt Q9P2K8); assay: Cellular assay for GCN2 activity (phospho-eIF2alpha immunocytochemistry, tryptophanol-stimulated U2OS cells); assay type: cell-based; design: endogenous in cells; host or cells: U2OS; settings: 2 hours compound, then 600 μM tryptophanol 30 minutes, anti-phospho-eIF2alpha, read-out: IC50 GCN2 (cell assay)
Protocol: Cellular Assay for the Determination of Compound Activities
Human U2OS cells (2000 cells/well) are seeded into 384-well plates and incubated for 20 hours.
The next day, the cells are treated with the test compounds and incubated for 2 hours. Then, tryptophanol, at a final concentration of 600 μM, is added to the cells and those are incubated for 30 minutes.
The analysis of cellular GCN2 activities is done by immunocytochemistry. Briefly, cells are fixated on the well surfaces by formaldehyde and permeabilised with Triton X-100. The primary antibody (anti-phospho-eIF2alpha (Ser51, Cell Signalling Technology, #3398) is incubated on the treated cells for 20 hours, followed by a 60 minutes incubation of the secondary antibody (anti-rabbit-IgG-Alexa 488; Molecular Probes #11008). The analysis and quantification of phosphorylated GCN2 is done by scanning the plates in the Acumen Explorer system (TTPLabtech). The obtained data are normalised against the untreated control wells (DMSO only) and expressed as % effect values. The determination of IC50 values is done by using the Graph Pad Prism software.
Target sequence in this assay (Q9P2K8 whole entry): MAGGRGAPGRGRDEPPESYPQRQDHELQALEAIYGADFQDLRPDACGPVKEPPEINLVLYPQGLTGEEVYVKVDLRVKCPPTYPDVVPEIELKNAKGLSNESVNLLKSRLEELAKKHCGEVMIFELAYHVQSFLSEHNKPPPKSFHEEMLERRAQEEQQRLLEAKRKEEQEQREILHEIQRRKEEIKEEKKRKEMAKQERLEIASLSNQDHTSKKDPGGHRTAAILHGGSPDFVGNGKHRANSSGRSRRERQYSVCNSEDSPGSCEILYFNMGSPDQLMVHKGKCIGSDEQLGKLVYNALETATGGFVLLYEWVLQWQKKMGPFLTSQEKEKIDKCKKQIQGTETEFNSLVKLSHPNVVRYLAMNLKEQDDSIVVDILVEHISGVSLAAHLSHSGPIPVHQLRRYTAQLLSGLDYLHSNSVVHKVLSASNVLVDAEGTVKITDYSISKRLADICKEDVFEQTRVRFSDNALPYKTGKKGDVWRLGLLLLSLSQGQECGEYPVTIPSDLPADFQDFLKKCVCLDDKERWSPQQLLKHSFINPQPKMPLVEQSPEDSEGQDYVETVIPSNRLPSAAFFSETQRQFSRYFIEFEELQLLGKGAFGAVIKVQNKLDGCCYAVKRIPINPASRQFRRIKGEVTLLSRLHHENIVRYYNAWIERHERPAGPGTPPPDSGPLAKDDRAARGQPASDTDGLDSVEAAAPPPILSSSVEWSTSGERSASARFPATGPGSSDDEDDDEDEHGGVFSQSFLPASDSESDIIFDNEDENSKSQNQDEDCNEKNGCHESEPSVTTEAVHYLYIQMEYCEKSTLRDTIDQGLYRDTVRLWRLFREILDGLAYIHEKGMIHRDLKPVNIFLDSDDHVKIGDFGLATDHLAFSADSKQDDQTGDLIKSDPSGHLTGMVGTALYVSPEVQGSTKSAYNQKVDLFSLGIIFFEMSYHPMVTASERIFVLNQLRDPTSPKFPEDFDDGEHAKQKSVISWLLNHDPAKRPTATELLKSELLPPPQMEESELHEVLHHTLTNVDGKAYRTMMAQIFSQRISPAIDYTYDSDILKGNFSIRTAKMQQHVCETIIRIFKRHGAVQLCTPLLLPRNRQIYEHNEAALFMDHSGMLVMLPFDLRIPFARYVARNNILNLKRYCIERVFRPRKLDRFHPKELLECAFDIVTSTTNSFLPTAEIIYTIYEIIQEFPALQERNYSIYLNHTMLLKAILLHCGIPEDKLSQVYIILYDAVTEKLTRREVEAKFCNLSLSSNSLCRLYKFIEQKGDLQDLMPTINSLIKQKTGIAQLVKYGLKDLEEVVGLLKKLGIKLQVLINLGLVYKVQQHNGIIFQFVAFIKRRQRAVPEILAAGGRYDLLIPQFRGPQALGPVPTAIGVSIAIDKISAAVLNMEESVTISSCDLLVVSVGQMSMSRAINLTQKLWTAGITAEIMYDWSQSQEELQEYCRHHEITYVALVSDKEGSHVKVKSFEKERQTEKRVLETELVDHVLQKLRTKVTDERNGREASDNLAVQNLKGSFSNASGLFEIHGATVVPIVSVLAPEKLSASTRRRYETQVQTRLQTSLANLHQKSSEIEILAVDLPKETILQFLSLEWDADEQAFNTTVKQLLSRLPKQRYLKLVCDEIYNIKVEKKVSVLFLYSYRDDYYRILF

GCN2 [2] = target: T1, GCN2; assay: GCN2 enzyme assay (TR-FRET Lanthascreen, phosphorylation of GFP-eIF2alpha); assay type: biochemical; settings: 10 μM ATP, 80 nM GFP-eIF2alpha, 30 nM GCN2, room temperature
Procedure, shortened: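 Two-step TR-FRET (Lanthascreen) format: GCN2 incubated at room temperature with 10 μM ATP and 80 nM GFP-labelled eIF2alpha, then stopped with EDTA. Phospho-eIF2alpha detected by Tb-labelled antibody, excitation 340 nm; activity taken from the 520/495 nm emission ratio.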
Target sequence in this assay (Q9P2K8 whole entry, species assumed): as the sequence (Q9P2K8 whole entry) above

Row | Structure (SMILES) | IC50 (GCN2 [1]) [nM] | IC50 (GCN2 [2]) [nM]
1 | CN1CCC(n2cc(Nc3ncc4nnn(-c5ccc(C(N)=O)cc5)c4n3)cn2)CC1 [Compound A69, 4-{5-[1-(1-methyl-piperidin-4-yl)-1H-pyrazol-4-ylamino]-[1,2,3]triazolo[4,5-d]pyrimidin-3-yl}-benzamide] | 300 to 3000 | < 300
2 | CCn1cc(Nc2ncc3nnn(-c4ccc(C(N)=O)cc4)c3n2)cn1 [Compound A70, 4-[5-(1-ethyl-1H-pyrazol-4-ylamino)-[1,2,3]triazolo[4,5-d]pyrimidin-3-yl]-benzamide] | 3000 to 50000 | < 300
3 | CN1CCC(n2cc(Nc3ncc4nnn(-c5ccc6cccnc6c5)c4n3)cn2)CC1 [Compound A73, [1-(1-methyl-piperidin-4-yl)-1H-pyrazol-4-yl]-(3-quinolin-7-yl-3H-[1,2,3]triazolo[4,5-d]pyrimidin-5-yl)-amine] | 3000 to 50000 | < 300
4 | CN1CCC(n2cc(Nc3ncc4nnn(-c5ccc6ncccc6c5)c4n3)cn2)CC1 [Compound A75, [1-(1-methyl-piperidin-4-yl)-1H-pyrazol-4-yl]-(3-quinolin-6-yl-3H-[1,2,3]triazolo[4,5-d]pyrimidin-5-yl)-amine] | 300 to 3000 | < 300
5 | COCCN1CCC(n2cc(Nc3ncc4nnn(-c5ccnc(OC)c5)c4n3)cn2)CC1 [Compound A76, {1-[1-(2-methoxy-ethyl)-piperidin-4-yl]-1H-pyrazol-4-yl}-[3-(2-methoxy-pyridin-4-yl)-3H-[1,2,3]triazolo[4,5-d]pyrimidin-5-yl]-amine] | 3000 to 50000 | < 300
6 | COc1ccc(-n2nnc3cnc(Nc4cnn(C5CCN(C)CC5)c4)nc32)nc1 [Compound A77, [3-(5-methoxy-pyridin-2-yl)-3H-[1,2,3]triazolo[4,5-d]pyrimidin-5-yl]-[1-(1-methyl-piperidin-4-yl)-1H-pyrazol-4-yl]-amine] | 300 to 3000 | < 300
7 | CC1(C)C(=O)Nc2cc(-n3nnc4cnc(Nc5cnn(C6CCOCC6)c5)nc43)ccc21 [Compound A85, 3,3-dimethyl-6-{5-[1-(tetrahydro-pyran-4-yl)-1H-pyrazol-4-ylamino]-[1,2,3]triazolo[4,5-d]pyrimidin-3-yl}-1,3-dihydro-indol-2-one] | 300 to 3000 | < 300
8 | c1nn(C2CCOCC2)cc1Nc1ncc2nnn(-c3ccc4cn[nH]c4c3)c2n1 [Compound A92, [3-(1H-indazol-6-yl)-3H-[1,2,3]triazolo[4,5-d]pyrimidin-5-yl]-[1-(tetrahydro-pyran-4-yl)-1H-pyrazol-4-yl]-amine] | < 300 | < 300
9 | CN1CCC(n2cc(Nc3ncc4nnn(-c5ccc6[nH]ncc6c5)c4n3)cn2)CC1 [Compound A93, [3-(1H-indazol-5-yl)-3H-[1,2,3]triazolo[4,5-d]pyrimidin-5-yl]-[1-(1-methyl-piperidin-4-yl)-1H-pyrazol-4-yl]-amine] | 3000 to 50000 | < 300
10 | CN1CCC(n2cc(Nc3ncc4nnn(-c5ccc6[nH]c(C(F)(F)F)nc6c5)c4n3)cn2)CC1 [Compound A95, [1-(1-methyl-piperidin-4-yl)-1H-pyrazol-4-yl]-[3-(2-trifluoromethyl-1H-benzoimidazol-5-yl)-3H-[1,2,3]triazolo[4,5-d]pyrimidin-5-yl]-amine] | 3000 to 50000 | < 300
11 | COCCOc1ccc(-n2nnc3cnc(Nc4cnn(C5CCNC5)c4)nc32)cc1 (centres unmarked) [Compound A96, {3-[4-(2-methoxy-ethoxy)-phenyl]-3H-[1,2,3]triazolo[4,5-d]pyrimidin-5-yl}-(1-pyrrolidin-3-yl-1H-pyrazol-4-yl)-amine] | 300 to 3000 | < 300
12 | CCOc1ccc(-n2nnc3cnc(Nc4cnn(CCC5CCNCC5)c4)nc32)cc1 [Compound A97, [3-(4-ethoxy-phenyl)-3H-[1,2,3]triazolo[4,5-d]pyrimidin-5-yl]-[1-(2-piperidin-4-yl-ethyl)-1H-pyrazol-4-yl]-amine] | 300 to 3000 | < 300
13 | COCCOc1ccc(-n2nnc3cnc(Nc4cnn(C5CCN(C(C)=O)C5)c4)nc32)cc1 (centres unmarked) [Compound A99, 1-[3-(4-{3-[4-(2-methoxy-ethoxy)-phenyl]-3H-[1,2,3]triazolo[4,5-d]pyrimidin-5-ylamino}-pyrazol-1-yl)-pyrrolidin-1-yl]-ethanone] | 3000 to 50000 | < 300
14 | CN1CCC(n2cc(Nc3ncc4nnn(-c5ccc6nccnc6c5)c4n3)cn2)CC1 [Compound A101, [1-(1-methyl-piperidin-4-yl)-1H-pyrazol-4-yl]-(3-quinoxalin-6-yl-3H-[1,2,3]triazolo[4,5-d]pyrimidin-5-yl)-amine] | 3000 to 50000 | < 300
15 | CCn1cc(Nc2ncc3nnn(-c4cnn(CC)c4)c3n2)cn1 [Compound A106, (1-ethyl-1H-pyrazol-4-yl)-[3-(1-ethyl-1H-pyrazol-4-yl)-3H-[1,2,3]triazolo[4,5-d]pyrimidin-5-yl]-amine] | 3000 to 50000 | < 300

The next lines start with the values.

Row | IC50 (GCN2 [1]) [nM] | IC50 (GCN2 [2]) [nM] | Structure (SMILES)
16 | 3000 to 50000 | 300 to 3000 | CCn1cc(Nc2ncc3nnn(-c4cccc(C(N)=O)c4)c3n2)cn1 [Compound A68, 3-[5-(1-ethyl-1H-pyrazol-4-ylamino)-[1,2,3]triazolo[4,5-d]pyrimidin-3-yl]-benzamide]
17 | 300 to 3000 | < 300 | CCn1cc(Nc2ncc3nnn(-c4ccc5ncccc5c4)c3n2)cn1 [Compound A71, (1-ethyl-1H-pyrazol-4-yl)-(3-quinolin-6-yl-3H-[1,2,3]triazolo[4,5-d]pyrimidin-5-yl)-amine]
18 | 300 to 3000 | < 300 | CCn1cc(-n2nnc3cnc(Nc4cnn(C5CCN(C)CC5)c4)nc32)cn1 [Compound A79, [3-(1-ethyl-1H-pyrazol-4-yl)-3H-[1,2,3]triazolo[4,5-d]pyrimidin-5-yl]-[1-(1-methyl-piperidin-4-yl)-1H-pyrazol-4-yl]-amine]
19 | < 300 | 300 to 3000 | NC(=O)c1ccc(-n2nnc3cnc(Nc4cnn(C5CCOCC5)c4)nc32)cc1 [Compound A80, 4-{5-[1-(tetrahydro-pyran-4-yl)-1H-pyrazol-4-ylamino]-[1,2,3]triazolo[4,5-d]pyrimidin-3-yl}-benzamide]
20 | 300 to 3000 | < 300 | Fc1cc(-n2nnc3cnc(Nc4cnn(C5CCOCC5)c4)nc32)ccc1Cl [Compound A81, [3-(4-chloro-3-fluoro-phenyl)-3H-[1,2,3]triazolo[4,5-d]pyrimidin-5-yl]-[1-(tetrahydro-pyran-4-yl)-1H-pyrazol-4-yl]-amine]
21 | 300 to 3000 | 300 to 3000 | c1cnc2ccc(-n3nnc4cnc(Nc5cnn(C6CCOCC6)c5)nc43)cc2c1 [Compound A82, (3-quinolin-6-yl-3H-[1,2,3]triazolo[4,5-d]pyrimidin-5-yl)-[1-(tetrahydro-pyran-4-yl)-1H-pyrazol-4-yl]-amine]
22 | 3000 to 50000 | < 300 | CCn1cc(-n2nnc3cnc(Nc4cnn(C5CCOCC5)c4)nc32)cn1 [Compound A83, [3-(1-ethyl-1H-pyrazol-4-yl)-3H-[1,2,3]triazolo[4.5-d]pyrimidin-5-yl]-[1-(tetrahydro-pyran-4-yl)-1H-pyrazol-4-yl]-amine]
23 | 300 to 3000 | < 300 | CCn1cc(Nc2ncc3nnn(-c4ccc5c(c4)NC(=O)C5(C)C)c3n2)cn1 [Compound A84, 6-[5-(1-ethyl-1H-pyrazol-4-ylamino)-[1,2,3]triazolo[4,5-d]pyrimidin-3-yl]-3,3-dimethyl-1,3-dihydro-indol-2-one]
24 | 300 to 3000 | < 300 | COCCOc1ccc(-n2nnc3cnc(Nc4cnn(C5CCOCC5)c4)nc32)cc1 [Compound A87, {3-[4-(2-methoxy-ethoxy)-phenyl]-3H-[1,2.3]triazolo[4,5-d]pyrimidin-5-yl}-[1-(tetrahydro-pyran-4-yl)-1H-pyrazol-4-yl]-amine]
25 | 300 to 3000 | < 300 | CCn1cc(Nc2ncc3nnn(-c4ccc5[nH]ncc5c4)c3n2)cn1 [Compound A91, (1-ethyl-1H-pyrazol-4-yl)-[3-(1H-indazol-5-yl)-3H-[1,2,3]triazolo[4,5-d]pyrimidin-5-yl]-amine]
26 | 3000 to 50000 | < 300 | CCOc1ccc(-n2nnc3cnc(Nc4cnn(CCC5CCN(C(C)=O)CC5)c4)nc32)cc1 [Compound A100, 1-[4-(2-{4-[3-(4-ethoxy-phenyl)-3H-[1,2,3]triazolo[4,5-d]pyrimidin-5-ylamino]-pyrazol-1-yl}-ethyl)-piperidin-1-yl]-ethanone]
27 | < 300 | < 300 | O[C@H]1CC[C@H](n2cc(Nc3ncc4nnn(-c5ccc(Cl)c(F)c5)c4n3)cn2)CC1 [Compound A103, 4-{4-[3-(4-chloro-3-fluoro-phenyl)-3H-[1,2,3]triazolo[4,5-d]pyrimidin-5-ylamino]-pyrazol-1-yl}-cyclohexanol]
28 | 300 to 3000 | < 300 | COCCOc1ccc(-n2nnc3cnc(Nc4cnn([C@H]5CC[C@@H](O)CC5)c4)nc32)cc1 [Compound A107, 4-(4-{3-[4-(2-methoxy-ethoxy)-phenyl]-3H-[1,2,3]triazolo[4,5-d]pyrimidin-5-ylamino}-pyrazol-1-yl)-cyclohexanol]
